Measured values: ChEMBL document CHEMBL1201862, “PubChem BioAssay data set” (2004)
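Following 48 hours of exposure in 96-well plates, responses at five concentrations were used to interpolate endpoints linearly. GI50 = concentration required for 50% inhibition of growth.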 The source made the active and inactive calls. Rule as the data show it: active = GI50 up to about 1.1 µM and inactive = higher.

Key:
Test in all cases: NCI tumour cell line growth inhibition, 48 h
SF-268 = system: SF-268
KM12 = system: KM12
HCT-15 = system: HCT-15
SN12C = system: SN12C
SR = system: SR
UO-31 = system: UO-31
HOP-92 = system: HOP-92
SK-OV-3 = system: SK-OV-3
NCI-H226 = system: NCI-H226
MDA-N = system: MDA-N
ACHN = system: ACHN
PC-3 = system: PC-3
SF-295 = system: SF-295
SF-539 = system: SF-539
MOLT-4 = system: MOLT-4
HOP-62 = system: HOP-62
T47D = system: T47D
MDA-MB-231 = system: MDA-MB-231
K562 = system: K562
SNB-75 = system: SNB-75
HCT-116 = system: HCT-116
HCC 2998 = system: HCC 2998
BT-549 = system: BT-549
A498 = system: A498
HT-29 = system: HT-29
SK-MEL-2 = system: SK-MEL-2
SK-MEL-5 = system: SK-MEL-5
RPMI-8226 = system: RPMI-8226
RXF 393 = system: RXF 393
Hs-578T = system: Hs-578T
SW-620 = system: SW-620
A549 = system: A549
CCRF-CEM = system: CCRF-CEM
NCI-H23 = system: NCI-H23
UACC-62 = system: UACC-62
OVCAR-5 = system: OVCAR-5
SNB-19 = system: SNB-19
LOX IMVI = system: LOX IMVI
OVCAR-8 = system: OVCAR-8
IGROV-1 = system: IGROV-1
OVCAR-3 = system: OVCAR-3
NCI-H460 = system: NCI-H460
TK-10 = system: TK-10
UACC-257 = system: UACC-257
M14 = system: M14
MCF7 = system: MCF7
HL-60 = system: HL-60
MDA-MB-435 = system: MDA-MB-435
SK-MEL-28 = system: SK-MEL-28
Malme-3M = system: Malme-3M
DU-145 = system: DU-145
EKVX = system: EKVX
U-251 = system: U-251
786-0 = system: 786-0
NCI/ADR-RES = system: NCI/ADR-RES
NCI-H522 = system: NCI-H522
CAKI-1 = system: CAKI-1
OVCAR-4 = system: OVCAR-4
COLO 205 = system: COLO 205

In the case of C#CC(C)(C)OC(=O)C(=[N+]=[N-])C(C)=O, the GI50 (SF-268) is reported as > 10 µM (inactive), the GI50 (KM12) is reported as > 10 µM (inactive) and the GI50 (HCT-15) is reported as greater than 10 µM. The GI50 (SN12C) was > 10 µM (inactive), the GI50 (SR) was > 10 µM (inactive) and the GI50 (UO-31) was > 10 µM (inactive). For the same molecule, the GI50 (HOP-92) was > 10 µM (inactive), the GI50 (SK-OV-3) was > 10 µM (inactive) and the GI50 (NCI-H226) was > 10 µM (inactive). The GI50 (MDA-N) was > 10 µM (inactive), the GI50 (ACHN) was > 10 µM (inactive) and the GI50 (PC-3) was > 10 µM (inactive). The GI50 (SF-295) was > 10 µM (inactive), the GI50 (SF-539) was > 10 µM (inactive) and the GI50 (MOLT-4) was > 10 µM (inactive). For the same molecule, the GI50 (HOP-62) was > 10 µM (inactive), the GI50 (T47D) was > 10 µM (inactive) and the GI50 (MDA-MB-231) was > 10 µM (inactive). The GI50 (K562) was > 10 µM (inactive), the GI50 (SNB-75) was > 10 µM (inactive) and the GI50 (HCT-116) was > 10 µM (inactive). The GI50 (HCC 2998) was > 10 µM (inactive), the GI50 (BT-549) was > 10 µM (inactive) and the GI50 (A498) was > 10 µM (inactive). For the same molecule, the GI50 (HT-29) was > 10 µM (inactive), the GI50 (SK-MEL-2) was > 10 µM (inactive) and the GI50 (SK-MEL-5) was > 10 µM (inactive). For the same molecule, the GI50 (RPMI-8226) was > 10 µM (inactive), the GI50 (RXF 393) was > 10 µM (inactive) and the GI50 (Hs-578T) was > 10 µM (inactive). For the same molecule, the GI50 (SW-620) was > 10 µM (inactive), the GI50 (A549) was > 10 µM (inactive) and the GI50 (CCRF-CEM) was > 10 µM (inactive). The GI50 (NCI-H23) was > 10 µM (inactive), the GI50 (UACC-62) was > 10 µM (inactive) and the GI50 (OVCAR-5) was > 10 µM (inactive). The GI50 (SNB-19) was > 10 µM (inactive), the GI50 (LOX IMVI) was > 10 µM (inactive) and the GI50 (OVCAR-8) was > 10 µM (inactive). The GI50 (IGROV-1) was > 10 µM (inactive), the GI50 (OVCAR-3) was > 10 µM (inactive) and the GI50 (NCI-H460) was > 10 µM (inactive). The GI50 (TK-10) was > 10 µM (inactive), the GI50 (UACC-257) was > 10 µM (inactive) and the GI50 (M14) was > 10 µM (inactive). The GI50 (MCF7) was > 10 µM (inactive), the GI50 (HL-60) was > 10 µM (inactive) and the GI50 (MDA-MB-435) was > 10 µM (inactive). For the same molecule, the GI50 (SK-MEL-28) was > 10 µM (inactive), the GI50 (Malme-3M) was > 10 µM (inactive) and the GI50 (DU-145) was > 10 µM (inactive). For the same molecule, the GI50 (EKVX) was > 10 µM (inactive), the GI50 (U-251) was > 10 µM (inactive) and the GI50 (786-0) was > 10 µM (inactive).
In the case of CCOC(=O)C(C)(Cc1ccc(O)cn1)NC(=O)c1ccccc1 (centres undefined), the GI50 (SF-268) is reported as > 100 µM (inactive), the GI50 (KM12) is reported as > 100 µM (inactive) and the GI50 (NCI/ADR-RES) is reported as > 100 µM (inactive). The GI50 (HCT-15) was greater than 100 µM, the GI50 (SR) was > 100 µM (inactive) and the GI50 (UO-31) was > 100 µM (inactive). For the same molecule, the GI50 (HOP-92) was 47 µM (inactive), the GI50 (SK-OV-3) was > 100 µM (inactive) and the GI50 (NCI-H226) was > 100 µM (inactive). For the same molecule, the GI50 (MDA-N) was > 100 µM (inactive), the GI50 (ACHN) was > 100 µM (inactive) and the GI50 (PC-3) was > 100 µM (inactive). For the same molecule, the GI50 (SF-295) was > 100 µM (inactive), the GI50 (SF-539) was > 100 µM (inactive) and the GI50 (NCI-H522) was > 100 µM (inactive). The GI50 (MOLT-4) was > 100 µM (inactive), the GI50 (HOP-62) was > 100 µM (inactive) and the GI50 (MDA-MB-231) was > 100 µM (inactive). The GI50 (K562) was > 100 µM (inactive), the GI50 (SNB-75) was 80.4 µM (inactive) and the GI50 (HCT-116) was > 100 µM (inactive). For the same molecule, the GI50 (HCC 2998) was > 100 µM (inactive), the GI50 (BT-549) was > 100 µM (inactive) and the GI50 (HT-29) was > 100 µM (inactive). The GI50 (SK-MEL-2) was > 100 µM (inactive), the GI50 (SK-MEL-5) was > 100 µM (inactive) and the GI50 (RPMI-8226) was > 100 µM (inactive). For the same molecule, the GI50 (RXF 393) was > 100 µM (inactive), the GI50 (Hs-578T) was > 100 µM (inactive) and the GI50 (SW-620) was > 100 µM (inactive). For the same molecule, the GI50 (A549) was > 100 µM (inactive), the GI50 (CCRF-CEM) was > 100 µM (inactive) and the GI50 (NCI-H23) was > 100 µM (inactive). For the same molecule, the GI50 (UACC-62) was > 100 µM (inactive), the GI50 (OVCAR-5) was > 100 µM (inactive) and the GI50 (CAKI-1) was > 100 µM (inactive). The GI50 (SNB-19) was > 100 µM (inactive), the GI50 (LOX IMVI) was > 100 µM (inactive) and the GI50 (OVCAR-8) was > 100 µM (inactive). The GI50 (IGROV-1) was > 100 µM (inactive), the GI50 (OVCAR-3) was > 100 µM (inactive) and the GI50 (NCI-H460) was > 100 µM (inactive). The GI50 (TK-10) was > 100 µM (inactive), the GI50 (UACC-257) was > 100 µM (inactive) and the GI50 (OVCAR-4) was > 100 µM (inactive). The GI50 (M14) was > 100 µM (inactive), the GI50 (HL-60) was > 100 µM (inactive) and the GI50 (MDA-MB-435) was > 100 µM (inactive). The GI50 (SK-MEL-28) was > 100 µM (inactive), the GI50 (Malme-3M) was > 100 µM (inactive) and the GI50 (DU-145) was > 100 µM (inactive). For the same molecule, the GI50 (EKVX) was > 100 µM (inactive), the GI50 (U-251) was > 100 µM (inactive) and the GI50 (COLO 205) was > 100 µM (inactive). The GI50 (786-0) was > 100 µM (inactive).
